Where no end group is shown, it is not given here.
Assays:
wild type C57BL/6J mice = assay: Emergence from isoflurane anesthesia (return of righting reflex); type: in vivo, mouse
Method: Loss and Return of Righting Reflex. Induction and emergence from isoflurane or sevoflurane were defined behaviorally as the respective loss and return of the righting reflex and were evaluated as follows. Wild-type C57BL/6J male mice aged 8-14 weeks (Jackson Laboratories). were placed in cylindrical gas-tight, controlled-environment chambers arrayed in parallel (35). After 90 min of habituation with 100% oxygen each day on two successive days, anesthesia was induced with a Drager model 19.1 isoflurane or sevoflurane vaporizer by using 8-12 stepwise incremental increases in the concentration of anesthetic gas dissolved in 100% oxygen. Anesthetic gas concentrations were determined in triplicate during the last 2 min at each step (35). Initial volatile anesthetic concentrations were 0.44% isoflurane or 0.96% sevoflurane. After 15 min at each concentration to allow for equilibration of the mouse with the anesthetic vapors, the concentration of volatile anesthetic was increased by 6±3% of the preceding value. […]
Pharmacologic Inhibition of Orexin Signaling and Righting Reflex Studies. To determine the effect of the orexin-1R antagonist, SB-334867-A (Tocris Bioscience), on induction of anesthesia, 24 C57BL/6J mice were evaluated for both the concentration at which the righting reflex was lost as well as a separate experiment to measure the latency to loss of righting. […]

wild-type mice = assay: Diet-induced obesity in mice; type: in vivo, mouse
From the text: To examine whether enhanced OX2R signaling causes resistance to diet-induced obesity, an OX2R selective agonist, [Ala11, D-Leu15] Orexin-B (Akanmu and Honma, 2005 Brain. Res. 1048. 138-145.; Asahi et al., 2003 Bioorg. Med. Chem. Lett. 13.
111-113) was continuously infused in the lateral ventricles of wild-type mice for 14 days. […] There was no effect of the OX2R selective agonist for OX2R-deficient mice on a high fat diet (n=4, weight gain 3.33±0.61 g), verifying the selectivity of the agonist in vivo.

[1] = system: orexin/ataxin-3 mice and wild-type controls; assay: EEG/EMG sleep/wake recording in orexin/ataxin-3 and wild-type mice; type: in vivo, mouse
From the text: (§1) Aspects of this example, including more detailed descriptions of the production of the CAG/orexin-transgenic mice, the cataplexy testing, cannulation (i.c.v.) and orexin administration and EEG/EMG recordings were published in Mieda et al., PNAS USA Mar. 30, 2004; 101(13):4649-54.
(§2) We administered orexin-A, a nonselective agonist for orexin receptor type 1 (OX1R) and OX2R.
To quantify the effects of orexin-A administration on sleep/wake status, we recorded EEG/EMG in orexin/ataxin-3 mice, as well as wild-type controls. […] Nevertheless, some pharmacological effects of exogenous orexins have been reported to vary with time of day (Zeitgeber-dependent effects). We therefore examined the effects of orexin-A administrations in mice both at the onset of the dark (active) phase as well as during the light (resting) phase, again by using a randomized crossover design.

[2] = system: orexin/ataxin-3-transgenic mice; assay: Cataplexy testing in orexin/ataxin-3-transgenic mice; type: in vivo; conditions: 3 nmol per mouse i.c.v., first 3 h after injection, vs vehicle
From the text: as §1, §2
We examined whether i.c.v. orexin-A administration suppresses cataplectic arrests in orexin/ataxin-3-transgenic mice. By using a randomized crossover design, we administered vehicle and orexin-A to all mice during separate experimental sessions. […] Thus, i.c.v. administration of orexin-A is sufficient to acutely suppress behavioral arrests in this model of narcolepsy.

[3] = 0.5 nmol/d infused in lateral ventricles, 14 days, wild-type mice
[4] = 3 nmol i.c.v., regardless of genotype and time of administration

## Cc1nc2ccc(NC(=O)Nc3ccnc4cccnc34)cc2o1.Cl [SB-334867-A]
Wild type C57BL/6J mice; 5 mg/kg or 20 mg/kg i.p., 1.25% isoflurane
  emergence from isoflurane anesthesia, dose dependence: dose-dependent delay in emergence
Wild type C57BL/6J mice; 20 mg/kg i.p. (F2,45=8.80, P<0.001)
  emergence from isoflurane anesthesia: significantly delayed emergence

## [Ala11, D-Leu15] Orexin-B
wild-type mice; [3]
  weight gain on a high fat diet: suppressed weight gain
  weight homeostasis on a low fat diet: without altering weight homeostasis
wild-type mice; 14 days, wild-type mice, high fat diet
  fat mass gain vs vehicle on a high fat diet: gained significantly less fat mass
wild-type mice; 14 days, wild-type mice, low fat diet
  fat mass gain on a low fat diet: no effect was observed
wild-type mice; OX2R-deficient mice, high fat diet
  effect for OX2R-deficient mice on a high fat diet: no effect
wild-type mice; OX2R-deficient mice, high fat diet, n=4
  weight gain: 3.33 ± 0.61 g
wild-type mice; after 14 days
  change in LEPR, POMC, SOCS3, STAT3 transcripts: no significant change
wild-type mice; after 14 days, high fat diet compared to low fat diet
  hypothalamic mRNA expression of orexigenic factors NPY and AGRP: reduced hypothalamic mRNA expression
wild-type mice; high fat vs low fat diet
  food intake: reduced food intake only on a high fat but not on low fat diet

## orexin-A: a nonselective agonist for orexin receptor type 1 (OX1R) and OX2R (QPLPDCCRQKTCSCRLYELLHGAGNHAAGILTL; ends and bridges not checked; cysteine pairing not given here; UniProt O43612 34-66, looked up)
[1]; 3 nmol i.c.v., 3-h period
  non-REM sleep in narcoleptic animals compared with wild-type: significantly greater suppressions of non-REM sleep
  wakefulness in orexin/ataxin-3-transgenic mice compared with wild-type mice: significantly greater amounts of wakefulness
[1]; 3 nmol i.c.v., dark phase
  elevation of REM sleep in narcoleptic mice: effectively suppressed this elevation of REM sleep
[1]; [4]
  non-REM and REM sleep: suppressed both non-REM and REM sleep
  wakefulness: strikingly increased wakefulness
[1]; 3 nmol i.c.v., regardless of the time of administration
  REM sleep suppression, narcoleptic mice vs wild-type controls: more effective at suppressing REM sleep in narcoleptic mice than in wild-type controls
[1]; 3 nmol per mouse i.c.v.
  effects in knockout mice lacking both OX1R and OX2R genes: no detectable effects
[1]; 24 h after a nocturnal administration
  cumulative wakefulness and cumulative sleep in narcoleptic animals: statistically significant increase of cumulative wakefulness and a decrease of cumulative sleep
[1]; after dark-phase or light-phase administration
  immediate rebounds of sleep: no immediate rebounds of sleep were observed
[2]
  frequency of cataplectic arrests: significantly reduced
  overall time spent in cataplexy: significantly reduced

From patent US8871794B2, “Small-molecule agonists for type-2 orexin receptor” (Board of Regents, The University of Texas System, priority 2008, dated 2014)
